{"source": "paper PMC6309945", "about": "(The FEBS journal, 2018)", "key": {"[1]": {"system": "human foreskin fibroblasts (HFF)", "assay": "MTT cytotoxicity assay", "type": "cell-based"}, "[2]": {"molecular_target": "plasmepsin II (PMII) (Plasmodium falciparum, UniProt P46925)", "sequence (P46925 125-453)": "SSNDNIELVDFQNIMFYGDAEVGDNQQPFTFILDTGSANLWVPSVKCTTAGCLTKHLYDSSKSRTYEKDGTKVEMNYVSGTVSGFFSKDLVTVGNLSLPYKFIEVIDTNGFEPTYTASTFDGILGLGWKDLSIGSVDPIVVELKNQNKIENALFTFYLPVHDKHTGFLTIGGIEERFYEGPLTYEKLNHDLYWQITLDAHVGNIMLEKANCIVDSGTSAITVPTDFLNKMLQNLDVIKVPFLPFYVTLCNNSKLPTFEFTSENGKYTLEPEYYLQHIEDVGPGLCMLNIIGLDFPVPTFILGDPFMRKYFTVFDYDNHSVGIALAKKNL", "assay": "Fluorogenic substrate inhibition assay of mature soluble recombinant PMII", "type": "biochemical"}}, "note": "Non-standard residues stand in square brackets, D forms with d. Residues, ends and D or L forms follow the SMILES beside them. *: point of attachment. Sta = CC(C)C[C@H](N)[C@@H](O)CC(=O)O; Isovaleryl = CC(C)CC(=O)*"}
{"smiles": "Cc1cc(N(C)CCN(C)C)cc(C)c1OCC(=O)N[C@@H](Cc1ccccc1)[C@H](O)C(=O)N1CSC(C)(C)[C@H]1C(=O)N[C@H]1c2ccccc2C[C@H]1O", "note": "[KNI-10743]", "values": [{"measurement": "Cytotoxicity (cell viability, MTT)", "setting": "[1]; highest concentration tested 25 µM, continuous exposure for 2 consecutive days", "value": "no significant cytotoxicity"}, {"measurement": "Morphology of cells", "setting": "[1]; light microscopy, compared to cisplatin-treated cells", "value": "remains intact"}]}
{"smiles": "CC(C)CC(=O)N[C@H](C(=O)N[C@H](C(=O)N[C@@H](CC(C)C)[C@@H](O)CC(=O)N[C@@H](C)C(=O)N[C@@H](CC(C)C)[C@@H](O)CC(=O)O)C(C)C)C(C)C", "note": "[Pepstatin A] (Isovaleryl-VV[Sta]A[Sta]-OH)", "values": [{"measurement": "Ki", "setting": "[2]", "value": 0.07, "unit": "nM"}]}
